± gives the standard deviation of the averaged measurements.
Legend:
Experiment in all cases: level (log10 ratio to DMSO vehicle control); higher = higher biomarker level / cell amount than vehicle control
[1] = compound: O=C(O)CCC(F)(C(F)(F)F)C(F)(F)F [4,4-bis(Trifluoromethyl)-4-fluoropropanoic acid] (in DMSO)
Experimental: (§1)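 BioMAP Diversity Plus panel of 12 human primary cell co-culture systems (3C, 4H, LPS, SAg, BT, BF4T, BE3C, CASM3C, HDF3CGF, KF3CT, MyoF, Mphg). Compounds were added 1 h before stimulation and left for 24 h (MyoF 48 h; BT 72 h for soluble read-outs or 6 d for IgG). Biomarkers were read by ELISA, cytotoxicity by SRB, PBMC viability and proliferation by Alamar Blue. Each well value was divided by the mean of 8 DMSO control wells on the same plate and log10 transformed; duplicate blinded samples were tested at 4 concentrations.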

[2] = compound: O=S(=O)(O)CCC(F)(F)C(F)(F)C(F)(F)C(F)(F)C(F)(F)C(F)(F)C(F)(F)C(F)(F)F [8:2 Fluorotelomer sulfonic acid] (in DMSO)
Experimental: as §1

[3] = compound: O=C(O)C(F)(OC(F)(F)C(F)(F)C(F)(F)F)C(F)(F)F [Ammonium perfluoro-2-methyl-3-oxahexanoate] (in Water)
Experimental: as §1

[4] = compound: O=S(=O)(O)C(F)(F)C(F)(F)OC(F)(F)C(F)(F)F [Perfluoro(2-ethoxyethane)sulfonic acid] (in DMSO)
Experimental: as §1

[5] = compound: O=C(O)C(F)(F)C(F)(F)C(F)(F)OC(F)(F)F [Perfluoro(4-methoxybutanoic) acid] (in DMSO)
Experimental: as §1

[6] = compound: CCOC(=O)CC(=O)C(F)(F)C(F)(F)F [Ethyl pentafluoropropionyl acetate] (in DMSO)
Experimental: as §1

| Test System | level (log10) ([1]; 6700 nM) | level (log10) ([1]; 20000 nM) | level (log10) ([1]; 60000 nM) | level (log10) ([2]; 6700 nM) | level (log10) ([2]; 20000 nM) | level (log10) ([2]; 60000 nM) | level (log10) ([3]; 6700 nM) | level (log10) ([3]; 20000 nM) | level (log10) ([3]; 60000 nM) | level (log10) ([4]; 6700 nM) | level (log10) ([4]; 20000 nM) | level (log10) ([4]; 60000 nM) | level (log10) ([5]; 6700 nM) | level (log10) ([5]; 20000 nM) | level (log10) ([5]; 60000 nM) | level (log10) ([6]; 6700 nM) | level (log10) ([6]; 20000 nM) | level (log10) ([6]; 60000 nM) |
| --- | --- | --- | --- | --- | --- | --- | --- | --- | --- | --- | --- | --- | --- | --- | --- | --- | --- | --- |
| 3C:CCL2/MCP-1 | 0.0005 ± 0.0092 | 0.0035 ± 0.012 | 0.0015 ± 0.0021 | -0.01 ± 0.0085 | -0.0335 ± 0.021 | -0.0185 ± 0.005 | -0.003 ± 0.0085 | -0.004 ± 0.016 | 0.056 ± 0.05 | -0.022 ± 0.03 | -0.014 ± 0.014 | -0.0095 ± 0.019 | -0.012 ± 0.0028 | -0.006 ± 0.0028 | 0.031 ± 0.041 | -0.012 ± 0.0042 | -0.0185 ± 0.0035 | 0.002 ± 0.0085 |
| 3C:CD54/ICAM-1 | -0.01 ± 0.017 | -0.022 ± 0.024 | -0.0085 ± 0.011 | -0.008 ± 0.0099 | 0.003 ± 0.013 | 0.034 ± 0.0042 | -0.0255 ± 0.0092 | 0.0065 ± 0.00071 | 0.0055 ± 0.011 | -0.0105 ± 0.028 | -0.0095 ± 0.023 | -0.01 ± 0.024 | -0.0205 ± 0.011 | -0.0275 ± 0.00071 | -0.029 ± 0.0014 | -0.0015 ± 0.012 | -0.01 ± 0.016 | 0.0025 ± 0.022 |
| 3C:CD62E/E-Selectin | -0.0065 ± 0.016 | -0.0165 ± 0.016 | -0.0085 ± 0.012 | 0.013 ± 0.025 | 0.0385 ± 0.0021 | 0.0715 ± 0.0078 | 0.0025 ± 0.005 | 0.0105 ± 0.011 | 0.011 ± 0.011 | 0.0125 ± 0.012 | 0 | 0.0125 ± 0.0064 | -0.012 ± 0.057 | -0.0085 ± 0.046 | -0.014 ± 0.0085 | -0.0035 ± 0.013 | -0.007 ± 0.023 | 0.011 ± 0.0071 |
| 3C:CD106/VCAM-1 | -0.0195 ± 0.018 | -0.0215 ± 0.03 | -0.0085 ± 0.023 | 0.002 ± 0.0014 | 0.009 ± 0.0028 | 0.019 ± 0.016 | -0.0065 ± 0.0035 | -0.0245 ± 0.0035 | -0.0155 ± 0.00071 | 0.008 ± 0.033 | 0.002 ± 0.0071 | 0 ± 0.0085 | -0.007 ± 0.0071 | -0.0145 ± 0.035 | -0.0265 ± 0.0078 | -0.0045 ± 0.0064 | -0.008 ± 0.0057 | -0.015 ± 0.0071 |
| 3C:CD141/Thrombomodulin | -0.035 ± 0.082 | -0.021 ± 0.062 | -0.0435 ± 0.069 | -0.003 ± 0.024 | -0.011 ± 0.034 | 0.0285 ± 0.037 | -0.0395 ± 0.03 | -0.0315 ± 0.011 | -0.057 ± 0.0028 | 0.0085 ± 0.018 | -0.0145 ± 0.036 | -0.023 ± 0.0028 | 0.003 ± 0.055 | -0.0165 ± 0.11 | -0.0245 ± 0.12 | -0.013 ± 0.0099 | -0.0185 ± 0.021 | -0.0455 ± 0.00071 |
| 3C:CD142/Tissue Factor | 0.024 ± 0.0099 | 0.0115 ± 0.0078 | -0.002 ± 0.023 | -0.018 ± 0.065 | 0.001 ± 0.052 | -0.0295 ± 0.046 | 0.0735 ± 0.012 | 0.0805 ± 0.0078 | 0.0805 ± 0.00071 | 0.013 ± 0.0057 | -0.001 ± 0.024 | 0.017 ± 0.0042 | 0.0125 ± 0.077 | 0.013 ± 0.095 | -0.021 ± 0.12 | -0.006 ± 0.0071 | -0.019 ± 0.031 | -0.033 |
| BE3C:Keratin 8/18 | 0.011 ± 0.0028 | -0.0005 ± 0.025 | -0.0045 ± 0.011 | 0.007 ± 0.0042 | 0.017 ± 0.0085 | 0.043 ± 0.014 | -0.042 ± 0.0042 | -0.019 ± 0.024 | -0.0165 ± 0.0092 | -0.007 ± 0.013 | -0.0105 ± 0.013 | -0.01 ± 0.011 | -0.013 ± 0.0057 | -0.002 ± 0.0071 | -0.004 ± 0.011 | 0.0105 ± 0.022 | 0.0095 ± 0.033 | 0.001 ± 0.0085 |
| BE3C:MMP-1 | 0.0065 ± 0.035 | 0.0105 ± 0.059 | 0.006 ± 0.045 | 0.048 ± 0.024 | 0.1715 ± 0.00071 | 0.232 ± 0.027 | 0.0325 ± 0.032 | 0.062 ± 0.038 | 0.136 ± 0.013 | -0.001 ± 0.0071 | 0.0055 ± 0.018 | 0.108 ± 0.069 | 0.0115 ± 0.012 | -0.009 ± 0.041 | 0.029 ± 0.095 | -0.01 ± 0.013 | -0.023 ± 0.018 | 0.021 ± 0.0014 |
| BE3C:MMP-9 | 0.0085 ± 0.035 | -0.024 ± 0.0042 | -0.003 ± 0.03 | 0.0045 ± 0.0064 | 0.0325 ± 0.035 | 0.015 ± 0.031 | -0.109 ± 0.051 | -0.09 ± 0.03 | -0.063 ± 0.035 | -0.0015 ± 0.00071 | -0.0005 ± 0.015 | 0.0265 ± 0.012 | -0.008 ± 0.0014 | 0.0035 ± 0.0064 | 0.011 ± 0.0057 | 0.006 ± 0.044 | -0.0145 ± 0.033 | -0.0065 ± 0.013 |
| BE3C:PAI-I | 0.009 ± 0.018 | -0.004 ± 0.018 | 0.006 ± 0.061 | 0.044 ± 0.014 | 0.126 ± 0.026 | 0.0955 ± 0.011 | -0.0995 ± 0.057 | -0.092 ± 0.044 | -0.124 ± 0.012 | -0.011 ± 0.023 | 0.0015 ± 0.021 | 0.032 ± 0.014 | -0.005 ± 0.0085 | -0.001 ± 0.025 | -0.0005 ± 0.0021 | 0.008 ± 0.0014 | -0.006 ± 0.014 | 0.0045 ± 0.018 |
| BE3C:SRB | 0.003 ± 0.0014 | -0.001 ± 0.0057 | 0.018 ± 0.0085 | -0.007 ± 0.0071 | -0.017 | -0.025 ± 0.0085 | -0.003 ± 0.0042 | 0 ± 0.0014 | 0.003 ± 0.0099 | -0.001 ± 0.0042 | 0 ± 0.0014 | 0.0055 ± 0.018 | 0.0015 ± 0.0021 | 0.0005 ± 0.0078 | 0.003 ± 0.0099 | -0.002 ± 0.0042 | -0.0015 ± 0.0035 | 0.002 ± 0.0071 |
| BE3C:tPA | 0.02 ± 0.075 | -0.001 ± 0.044 | -0.025 ± 0.027 | 0.0755 ± 0.021 | 0.0535 ± 0.0064 | -0.021 ± 0.0099 | -0.101 ± 0.047 | -0.0935 ± 0.021 | -0.0945 ± 0.021 | -0.004 ± 0.034 | -0.053 ± 0.013 | 0.0595 ± 0.013 | 0.002 ± 0.023 | -0.0065 ± 0.011 | -0.0015 ± 0.016 | -0.019 ± 0.041 | -0.034 ± 0.038 | -0.028 ± 0.035 |
| BE3C:uPA | -0.01 ± 0.038 | -0.021 ± 0.031 | -0.0355 ± 0.052 | 0.006 ± 0.0071 | 0.0055 ± 0.0035 | -0.002 ± 0.0028 | 0.033 ± 0.027 | 0.0315 ± 0.016 | 0.0245 ± 0.012 | -0.0015 ± 0.022 | -0.0145 ± 0.039 | -0.004 ± 0.023 | -0.004 ± 0.017 | -0.0125 ± 0.012 | 0.0035 ± 0.005 | -0.0105 ± 0.013 | -0.011 ± 0.013 | -0.0195 ± 0.0035 |
| CASM3C:CCL2/MCP-1 | -0.016 ± 0.013 | -0.016 ± 0.0085 | 0.0165 ± 0.039 | -0.0095 ± 0.00071 | -0.003 ± 0.0057 | 0.016 ± 0.04 | -0.0235 ± 0.021 | -0.034 ± 0.035 | -0.013 ± 0.013 | -0.003 ± 0.024 | -0.013 ± 0.0071 | -0.0115 ± 0.036 | -0.01 ± 0.011 | -0.008 ± 0.0057 | 0.017 ± 0.031 | -0.001 ± 0.0028 | 0.003 ± 0.0057 | 0.009 ± 0.027 |
| CASM3C:CD87/uPAR | 0.027 ± 0.0028 | 0.0265 ± 0.013 | 0.03 ± 0.024 | 0.025 ± 0.0099 | 0.022 ± 0.0014 | -0.0055 ± 0.016 | -0.031 ± 0.076 | 0.0075 ± 0.011 | 0.014 ± 0.027 | 0.0025 ± 0.032 | 0.01 ± 0.024 | -0.0165 ± 0.046 | -0.0135 ± 0.04 | -0.0095 ± 0.0092 | -0.0255 ± 0.016 | 0.0015 ± 0.028 | -0.013 ± 0.0057 | -0.01 ± 0.017 |
| CASM3C:CD106/VCAM-1 | -0.0265 ± 0.049 | -0.0185 ± 0.056 | -0.033 ± 0.0099 | 0.0015 ± 0.029 | -0.0425 ± 0.025 | -0.071 ± 0.033 | -0.0955 ± 0.061 | -0.0645 ± 0.005 | -0.083 ± 0.011 | -0.0035 ± 0.023 | -0.0165 ± 0.026 | 0.001 ± 0.018 | -0.0045 ± 0.057 | -0.0015 ± 0.042 | -0.008 ± 0.035 | -0.01 ± 0.0085 | -0.011 ± 0.0085 | -0.01 ± 0.023 |
